Results from patent US20260146044A1, “AROMATIC COMPOUND, PHARMACEUTICAL COMPOSITION CONTAINING SAME, AND USE THEREOF” (Increland, priority 2023, published 2026).
Read-outs that look alike come from different tables or passages of the source.

How the values were obtained:
[1] = tested on: secretion levels of IL-6 in PBMC cells; test: Inhibition of LPS+IL-1β-induced IL-6 secretion in PBMC (IL-6 ELISA); type: cell-based; settings: human PBMC, 24 h compound pre-incubation, 20 h stimulation
[2] = tested on: IMQ-induced psoriasis model; test: IMQ-induced psoriasis model, skin thickening and ear thickening; type: in vivo, BALB/c mice; settings: BID, gavage; for IMQ-induced psoriatic ear thickening, P compared with the Model group: FIG. 2
Description: Male BALB/c mice aged 6-8 weeks were randomly grouped into 15 groups or 6 groups after 1 week of adaptive feeding: control group, imiquimod model group (i.e., Model group), clobetasol propionate group (i.e., CLO group), the compounds of the present invention: TM-57 ICL-004192 (3 mg/kg, 10 mg/kg, 30 mg/kg), TM-109ICL-004240 (3 mg/kg, 10 mg/kg, 30 mg/kg, 60 mg/kg), TM-101ICL-004250 (3 mg/kg, 10 mg/kg, 30 mg/kg, 60 mg/kg), with 5 mice per group, and the Control group, the imiquimod model group (i.e., the Model group), and the clobetasol propionate group (i.e., the CLO group). On day 0, each of the mice was unhaired on the back using a hair removal cream, with a hair removal area of 2.5 cm×1.5 cm. On the first day, IMQ cream was used for modeling, and a corresponding drug was administered by gavage for treatment. The compounds of the present invention were administered by gavage at corresponding doses twice daily in the morning and evening with an interval of 8 h between two administrations. 2 h after the first gavage on a same day, the IMQ cream was applied to the to-be-unhaired site on the back and the left ear of each of the mice, with doses of the IMQ cream administered to the to-be-unhaired site on the back and the left ear being 62.5 mg and 7.5 mg, respectively. 5 h after the IMQ cream was applied to the to-be-unhaired area on the back and the left ear of each of the mice in the CLO group, clobetasol propionate cream was applied once daily. The blank group and the IMQ group were administrated with a vehicle twice daily in the morning and evening with an interval of 8 h between two administrations. […]
Referring to the Psoriasis Area and Severity Index (PASI) scoring criteria, the psoriasis, erythema, and thickness of skin lesions on the back were scored from 0 to 4 every morning from day 1 of modeling, with the scoring criteria as shown in Table 1. […] The ear thickness of the left ear of the mouse was measured using a digital vernier caliper three times every morning from day 1, to obtain a mean value.

[3] = Pharmacokinetic experiment on SD rats (iv and ig); type: in vivo; settings: Sprague-Dawley, rat, plasma; for Cmax: read-out: Peak plasma concentration Cmax; for bioavailability: ig 5.00 mg/kg vs iv 1.00 mg/kg, read-out: Oral bioavailability Fobs (%)
Description: Pharmacokinetic experiment on SD rats: in this experiment, two administration modes: oral intragastric administration and tail vein injection were selected. Each of the compounds of the present patented invention was administered at an oral dose of 5 mg/kg at an administration volume of 10 mL/kg. […] Appropriate amounts of Solutol and H2O were proportionally added sequentially, and fully mixed ultrasonically by vortexing, to prepare a clear drug solution at 0.5 mg/mL. ICL004-protodrug was administered by intravenous injection at a dose of 1 mg/kg at an administration volume of 10 mL/kg. Right before use, an appropriate amount of the drug was accurately weighed, to prepare a final volume of 20% PEG 400 and 80% Saline. Appropriate amounts of PEG 400 and Saline were proportionally added sequentially, and fully mixed ultrasonically by vortexing, to prepare a clear drug solution at 0.1 mg/mL.
6 SD rats, each with body weight of 180-220 g, were randomly grouped into 2 groups. After fasting but with free access to water overnight, each […] in the first group was administered by gavage. 200 μL of blood was sampled from its eye socket into an anticoagulant tube respectively at each time point of 15 min, 30 min, 1 h, 2 h, 4 h, 6 h, 8 h, and 24 h after administration. Within one h, each of the blood samples was centrifuged at 10,000 rpm at 4° C. for 20 min (the sample was stored on an ice box prior to the centrifugation), and the supernatant (i.e., the plasma) was stored in a refrigerator at −20° C. for LC-MS/MS analysis. 200 μL of blood was sampled from the eye socket of each […] in the second group into an anticoagulant tube respectively at each time point of 5 min, 15 min, 30 min, 1 h, 2 h, 4 h, 8 h, and 24 h after administration by intravenous injection. Within one h, each of the blood samples was centrifuged at 10,000 rpm at 4° C. for 20 min (the blood sample was stored on an ice box prior to the centrifugation), and the supernatant, i.e., the plasma, was stored in a refrigerator at −20° C. for LC-MS/MS analysis.

SMILES | IC50 [1] | IMQ-induced psoriatic skin thickening, P compared with the Model group ([2]; 30 mg/kg, FIG. 1) | IMQ-induced psoriatic ear thickening, P compared with the Model group ([2]; 30 mg/kg) | AUC ([3]; iv, 1.00 mg/kg) | AUC(0-inf) ([3]; iv, 1.00 mg/kg) | Cmax ([3]; iv, 1.00 mg/kg) | bioavailability ([3]; po) | AUC ([3]; po, ig, 5.00 mg/kg) | AUC(0-inf) ([3]; po, ig, 5.00 mg/kg) | Cmax ([3]; po, ig, 5.00 mg/kg) | IMQ-induced psoriatic ear thickening, P compared with the Model group ([2]; 60 mg/kg)
Cc1nn(C2CCC(=O)NC2=O)c2cccc(N3CC4CN(C[C@H]5CC[C@H](n6cc7cc(NC(=O)c8cnn9cccnc89)c(N8CCOCC8)cc7n6)CC5)CC4C3)c12 (stereo partly shown) [TM-57] | 8.67 nM | < 0.01 | < 0.0001 | 499 ng·h/mL | 526 ng·h/mL | 225 ng/mL | 46.6% | 580 ng·h/mL | 1230 ng·h/mL | 79.7 ng/mL | –
Cc1nn(C2CCC(=O)NC2=O)c2cncc(N3CCN(C[C@H]4CC[C@H](n5cc6cc(NC(=O)c7cnn8cccnc78)c(N7CCO[C@H](C)C7)cc6n5)CC4)CC3)c12 (stereo partly shown) [TM-109] | 39.2 nM | – | – | 537 ng·h/mL | 776 ng·h/mL | 101 ng/mL | 7.87% | 268 ng·h/mL | 306 ng·h/mL | 23 ng/mL | < 0.01
